Assay results as given in US11026954B2, “3-beta-hydroxy-5-alpha-pregnan-20-one for use in medical treatment” (ASARINA PHARMA AB, priority 2017, dated 2021).

How the values were obtained:
[1] = molecular target: T1, human alpha1,beta2,gamma2 GABAA receptor (Homo sapiens, UniProt P14867+P47870); test: Patch-clamp (Dynaflow) on HEK-293 cells expressing GABAA receptor alpha1,beta2,gamma2; type: cell-based; details: for effect by itself (Baseline shift): absence of GABA
T1 construct: expressed in transfected cells
T1 sequence (P14867 28-456): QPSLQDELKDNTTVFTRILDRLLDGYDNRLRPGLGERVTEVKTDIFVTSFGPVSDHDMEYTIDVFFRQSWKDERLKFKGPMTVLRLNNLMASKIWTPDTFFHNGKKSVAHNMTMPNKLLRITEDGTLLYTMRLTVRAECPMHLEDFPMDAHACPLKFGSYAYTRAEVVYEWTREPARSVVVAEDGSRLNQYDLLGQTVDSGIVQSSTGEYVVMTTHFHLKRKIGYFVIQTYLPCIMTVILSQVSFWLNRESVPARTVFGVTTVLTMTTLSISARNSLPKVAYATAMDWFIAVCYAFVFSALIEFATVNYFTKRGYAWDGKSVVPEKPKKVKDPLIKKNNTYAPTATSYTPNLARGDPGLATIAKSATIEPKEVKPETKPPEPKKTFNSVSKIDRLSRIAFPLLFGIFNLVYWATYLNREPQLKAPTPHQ
T1 sequence (P47870 25-512 limits assumed): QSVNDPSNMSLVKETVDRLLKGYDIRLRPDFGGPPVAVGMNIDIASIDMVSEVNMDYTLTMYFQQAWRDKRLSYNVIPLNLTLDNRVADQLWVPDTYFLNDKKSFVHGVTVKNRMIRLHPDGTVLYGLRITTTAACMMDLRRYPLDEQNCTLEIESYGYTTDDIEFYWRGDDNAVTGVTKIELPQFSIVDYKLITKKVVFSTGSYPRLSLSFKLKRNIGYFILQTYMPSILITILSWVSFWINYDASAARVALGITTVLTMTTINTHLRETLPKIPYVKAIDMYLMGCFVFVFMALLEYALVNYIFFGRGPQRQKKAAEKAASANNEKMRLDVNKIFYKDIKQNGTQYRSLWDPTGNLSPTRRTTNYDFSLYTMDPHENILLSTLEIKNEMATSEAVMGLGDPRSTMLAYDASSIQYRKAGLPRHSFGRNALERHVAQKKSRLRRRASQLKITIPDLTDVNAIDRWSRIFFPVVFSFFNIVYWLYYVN
T1 sequence (P18507 40-475 partner): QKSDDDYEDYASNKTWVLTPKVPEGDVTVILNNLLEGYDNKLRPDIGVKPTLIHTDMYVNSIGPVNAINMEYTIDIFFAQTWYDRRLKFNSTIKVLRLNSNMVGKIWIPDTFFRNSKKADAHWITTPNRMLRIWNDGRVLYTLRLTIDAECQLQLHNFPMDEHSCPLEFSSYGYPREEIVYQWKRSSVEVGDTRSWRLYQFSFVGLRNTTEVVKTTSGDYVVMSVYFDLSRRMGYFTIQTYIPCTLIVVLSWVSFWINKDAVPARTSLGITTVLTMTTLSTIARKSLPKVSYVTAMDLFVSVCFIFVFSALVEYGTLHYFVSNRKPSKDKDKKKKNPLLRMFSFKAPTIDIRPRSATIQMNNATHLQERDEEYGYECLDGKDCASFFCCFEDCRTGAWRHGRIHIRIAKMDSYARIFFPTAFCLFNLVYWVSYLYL
Source text: (§1) Assay for Testing GABAA Receptor Effects of 3Beta-Hydroxy-5Alpha-Pregnan-20-One on Human Alpha1,Beta,Gamma and Alpha4,Beta,Delta GABAA Receptor Subtype.
(§2) 2) in absence and in presence of the positive GABAA receptor modulating steroids Tetrahydrodeoxycorticosterone (THDOC) and 3alpha-hydroxy-5alpha-androstan-17-ol (3alpha-OH-adiol) by the Dynaflow™ system on HEK-293 cells. In these tests the protocol was optimized to be similar to the physiological conditions in the synaptic cleft.
(§3) HEK-293 cells, permanently transfected with the human alpha1,beta,gamma and alpha4,beta,delta GABAA receptor subtypes, were seeded at a density of 3×10^4/25 cm^2 in cellbind culture flask. The transfected cells were used for patch-clamp experiments 3 days after seeding. When using the cells for patch-clamp experiments the cells were washed twice with oxygen-bubbled extracellular (EC) solution (see below). About 5 mL EC was then added and the cells were kept in the incubator for about 15 minutes. After 15 minutes the cells came loose from the bottom of the flask and were separated by carefully sucking couple of times with a Pasteur pipette.
(§4) Dynaflow™ system with Resolve chip was used for patch-clamp experiments: The electrophysiological recordings from HEK-293 cells were performed under voltage-clamp conditions using patch-clamp technique and the Dynaflow™ system (Dynaflow Pro II Platform Zeiss Axiovert 25; Cellectricon AB, Sweden) with Resolve chips as application system.
(§5) Patch pipettes were pulled from borosilicate glass and polished to a resistance 2-5 MΩ when filled with suitable intracellular solution (IC) (pH was adjusted to 7.2) and immersed in bath solution (extracellular, EC) (pH is adjusted to 7.4). The recordings were made using an Axopatch 200B amplifier, a Digidata 1322A (Axon instruments, Foster city, USA). Data were acquired using the pCLAMP software sampled at 10 kHz, filtered at 2-10 kHz and analyzed with Clampfit (versions 9.0, both from Axon instruments, Foster city, USA). No higher series resistance than 20 MΩ between pipette and cell membrane was accepted. No series resistance compensation was used. The stability of series resistance was monitored repeatedly from the time course of capacitative transients during the experiments. The measured liquid-junction potential between EC and IC was subtracted in all data presented. All experiments were performed at room temperature (21-23° C.).
(§6) All steroids were dissolved to the concentration of 6 mM in DMSO. […] End solutions were the solutions added into the wells of the chip.
(§7) After compensating for the liquid junction potential a steady holding potential of −17 mV was used in all experiments. […] By using the holding potential of −17 mV and the intracellular solution with low chloride ion concentration the chloride ions flux into the cell when the receptors were activated.
(§8) The Dynaflow system allowed application of solutions for as short as 40 ms up to minutes in time.
(§9) In the experiments, THDOC and 3alpha-OH-adiol were used as the positive GABAA receptor modulating steroids.
(§10) Different incubation times were studied to achieve the optimal time for attain stable results and minimize the washout time.
(§11) Cell lines permanently expressing a functional human GABAA receptor was made in following steps. The GABAA receptor subunits alpha1, beta2 and gamma2L or alpha4, beta3 and delta including introduced Kozac sequences just before the start codons, were subcloned into mammalian expression vectors containing Geneticin, Hygromycin B, and Zeocin resistance, respectively.

[2] = molecular target: T2, human alpha4,beta3,delta GABAA receptor (Homo sapiens, UniProt P28472+P48169); test: Patch-clamp (Dynaflow) on HEK-293 cells expressing GABAA receptor alpha4,beta3,delta; type: cell-based
T2 construct: expressed in transfected cells
T2 sequence (P48169 36-554): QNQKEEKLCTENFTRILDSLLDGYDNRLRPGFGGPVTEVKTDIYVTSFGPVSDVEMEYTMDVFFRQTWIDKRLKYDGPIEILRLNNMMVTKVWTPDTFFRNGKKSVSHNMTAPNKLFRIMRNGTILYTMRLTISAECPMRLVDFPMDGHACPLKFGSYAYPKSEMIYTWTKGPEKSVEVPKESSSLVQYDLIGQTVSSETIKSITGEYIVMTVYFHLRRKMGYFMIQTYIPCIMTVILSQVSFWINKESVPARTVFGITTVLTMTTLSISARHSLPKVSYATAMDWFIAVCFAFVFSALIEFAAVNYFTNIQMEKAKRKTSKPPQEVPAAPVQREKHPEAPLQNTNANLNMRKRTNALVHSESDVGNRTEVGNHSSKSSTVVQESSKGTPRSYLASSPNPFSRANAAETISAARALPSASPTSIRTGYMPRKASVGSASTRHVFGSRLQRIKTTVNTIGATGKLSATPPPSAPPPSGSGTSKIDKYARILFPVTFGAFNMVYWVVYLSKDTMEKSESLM
T2 sequence (P28472 26-473): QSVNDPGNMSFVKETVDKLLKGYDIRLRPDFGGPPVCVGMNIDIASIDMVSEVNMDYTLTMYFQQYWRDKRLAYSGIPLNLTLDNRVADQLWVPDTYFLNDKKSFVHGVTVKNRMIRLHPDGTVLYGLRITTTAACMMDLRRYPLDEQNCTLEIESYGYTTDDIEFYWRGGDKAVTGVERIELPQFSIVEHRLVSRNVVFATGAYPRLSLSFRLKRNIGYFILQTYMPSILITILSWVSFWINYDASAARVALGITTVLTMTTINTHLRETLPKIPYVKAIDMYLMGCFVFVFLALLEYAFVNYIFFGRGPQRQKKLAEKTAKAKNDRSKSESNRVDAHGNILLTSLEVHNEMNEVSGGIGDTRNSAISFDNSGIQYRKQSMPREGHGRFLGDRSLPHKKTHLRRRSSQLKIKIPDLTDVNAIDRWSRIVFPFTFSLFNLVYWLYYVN
T2 sequence (O14764 17-452 partner limits assumed): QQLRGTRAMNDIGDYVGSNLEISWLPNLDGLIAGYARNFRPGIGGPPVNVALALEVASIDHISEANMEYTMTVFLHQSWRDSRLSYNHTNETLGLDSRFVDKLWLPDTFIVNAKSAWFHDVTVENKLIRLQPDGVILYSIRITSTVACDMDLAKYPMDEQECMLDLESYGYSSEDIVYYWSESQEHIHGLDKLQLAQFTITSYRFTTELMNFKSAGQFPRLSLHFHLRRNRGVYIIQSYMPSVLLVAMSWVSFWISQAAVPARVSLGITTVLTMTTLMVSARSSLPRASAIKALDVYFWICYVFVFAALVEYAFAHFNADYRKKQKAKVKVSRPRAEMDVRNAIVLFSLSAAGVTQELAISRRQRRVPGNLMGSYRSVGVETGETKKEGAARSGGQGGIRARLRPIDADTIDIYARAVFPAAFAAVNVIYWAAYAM
Source text: as §1, §2, §3, §4, §5, §6, §7, §8, §9, §10, §11

[3] = 1 μM 3beta-hydroxy-5alpha-pregnan-20-one

Compound: CC(=O)[C@H]1CC[C@H]2[C@@H]3CC[C@H]4C[C@@H](O)CC[C@]4(C)[C@H]3CC[C@]12C [3beta-hydroxy-5alpha-pregnan-20-one]
- Antagonism of THDOC enhanced GABA effect (max, concentration-dependent experiment) ([1]; 1 μM 3beta-hydroxy-5alpha-pregnan-20-one + 30 μM GABA + 200 nM THDOC, n=10): −21±4.6%
- Effect on 8 μM Androstandiol + 30 μM GABA ([1]; 1 μM 3beta-hydroxy-5alpha-pregnan-20-one, phasic effect): −30 ± 1.7%
- Effect on 8 μM Androstandiol, baseline shift ([1]; 1 μM 3beta-hydroxy-5alpha-pregnan-20-one, tonic effect, without GABA): −33 ± 7.6%
- Imax, antagonism of THDOC effect ([1]; 0.1-1 μM 3beta-hydroxy-5alpha-pregnan-20-one + 30 μM GABA + 200 nM THDOC): −21%
- Antagonism of THDOC enhanced GABA effect (single dose) ([1]; single dose 1 μM + 30 μM GABA + 200 nM THDOC, n=6): −22.3±5.3%
- Effect on 0.6 μM Androstandiol + 3 μM GABA [2, 3]: −18 ± 2.0%
- Effect on 0.8 μM Androstandiol + 3 μM GABA [2, 3]: −22 ± 2.6%
- Effect by itself (current response) ([2]; 1 μM 3beta-hydroxy-5alpha-pregnan-20-one alone, N=11, NS vs EC solution): −0.4±0.3 pA
- Effect on 3 μM GABA response ([2]; 1 μM 3beta-hydroxy-5alpha-pregnan-20-one, N=11, NS): −6.7 ± 3.3%
- Effect on GABA alone (in words) ([2]; 1 μM 3beta-hydroxy-5alpha-pregnan-20-one, data not shown): without any significant effect
- Effect on 0.1 μM THDOC + 3 μM GABA ([2]; 1 μM 3beta-hydroxy-5alpha-pregnan-20-one, steady state): −26 ± 2.4%
- Effect on 0.1 μM THDOC alone baseline ([2]; 1 μM 3beta-hydroxy-5alpha-pregnan-20-one, without GABA): −43 ± 3.5%

Compound: C[C@]12CC[C@@H](O)C[C@@H]1CC[C@@H]1[C@@H]2CC[C@]2(C)C(O)CC[C@@H]12 (stereo partly drawn) [Androstandiol, 3alpha-hydroxy-5alpha-androstan-17-ol]
- effect by itself (Baseline shift) ([1]; 3 μM androstandiol): +8 ± 3.6 pA
- effect by itself (Baseline shift) ([1]; 8 μM androstandiol): +13 ± 2.3 pA
- effect by itself (Baseline shift) ([1]; 10 μM androstandiol): +11 ± 1.5 pA
- effect by itself (Baseline shift) ([1]; 30 μM androstandiol): +24 ± 6.8 pA
- effect by itself (Baseline shift) ([1]; 100 μM androstandiol): +43 ± 5.7 pA
- Potency relative to THDOC (less potent) ([1]; enhancing the effect of GABA, 30 μM GABA): 48 times
- Baseline shift (current response in absence of GABA) ([2]; 3 μM androstandiol): +8 ± 3.6 pA
- Baseline shift (current response in absence of GABA) ([2]; 10 μM androstandiol): +13 ± 4.8 pA
- Potency at alpha4,beta3,delta relative to alpha1,beta2,gamma2 (higher) ([2]; enhancement of GABA-mediated current): 10 times

Compound: C[C@]12CC[C@@H](O)C[C@H]1CC[C@@H]1[C@@H]2CC[C@]2(C)[C@@H](C(=O)CO)CC[C@@H]12 [THDOC, Tetrahydrodeoxycorticosterone]
- Emax, enhancement of GABA mediated current ([1]; 0.03-1 μM THDOC + 30 μM GABA): +115%
- EC50 ([1]; read-out: EC50, enhancement of GABA mediated current, 0.03-1 μM THDOC + 30 μM GABA): 70 nM
- Baseline shift (current response in absence of GABA) ([2]; 0.03 μM THDOC): +5 ± 3.3 pA
- Baseline shift (current response in absence of GABA) ([2]; 0.1 μM THDOC): +15 ± 9.5 pA
- Baseline shift (current response in absence of GABA) ([2]; 0.3 μM THDOC): +12 ± 7.9 pA
- Baseline shift (current response in absence of GABA) ([2]; 1 μM THDOC): +69 ± 35 pA
- Emax, enhancement of GABA mediated current response ([2]; THDOC + 3 μM GABA): 297%
- EC50 ([2]; read-out: EC50, enhancement of GABA mediated current response, THDOC + 3 μM GABA): 47 nM
